Data: ChEMBL document CHEMBL1146417, “New anti-HIV-1, antimalarial, and antifungal compounds from Terminalia bellerica” (J Nat Prod, 1997)

Key:
[1] = system: Candida albicans; test: Antifungal activity against Candida albicans IMI 349010 on TLC plate by agar overlay method; type: functional
[2] = system: Human immunodeficiency virus 1; test: Antiviral activity against HIV1 in MT4 cells assessed as reduction of HIV antigen production; type: functional, organism-based; details: Human immunodeficiency virus 1, MT4
[3] = system: Plasmodium falciparum; test: Antimalarial activity against chloroquine-sensitive Plasmodium falciparum 3D7 by [3H]hypoxanthine incorporation assay; type: functional, organism-based
[4] = system: Penicillium expansum; test: Antifungal activity against Penicillium expansum IMI 960902 on TLC plate by bioautographic method; type: functional

Molecule | Activity [1] [µg] | EC50 [2] [µM] | IC50 [3] [µM] | Activity [4] [µg]
C=C(Cc1ccc(O)cc1)C(=C)Cc1ccc(O)cc1 [ANOLIGNAN B] | >200 | 7 | 20.5 | 5
NYSTATIN | – | – | – | 0.5
Oc1ccc2c(c1)O[C@H](c1ccc3c(c1)OCO3)CC2 | 6 | 7 | > 50 | 3
C=C(Cc1ccc(O)cc1)C(=C)Cc1ccc(OC)cc1O [TERMILIGNAN] | 10 | 7 | 9.6 | 1
C[C@@H]1[C@H](O)[C@@H](C)/C=C/C=C/C=C/C=C/C=C/C=C/C=C/[C@H](O[C@@H]2O[C@H](C)[C@@H](O)[C@H](N)[C@@H]2O)C[C@@H]2O[C@](O)(C[C@@H](O)C[C@@H](O)[C@H](O)CC[C@@H](O)C[C@@H](O)CC(=O)O[C@H]1C)C[C@H](O)[C@H]2C(=O)O [AMPHOTERICIN B] | 1 | – | – | –
C=C(Cc1ccc(O)cc1)C(O)(CO)Cc1ccc(OC)cc1O (stereo not drawn) [THANNILIGNAN] | 80 | 7 | > 50 | 2
